Reference: patent publication EP4786454A1, “HETEROARYL DERIVATIVE AND USE THEREOF” (priority 2023, dated 2025)

How the values were obtained:
male CD-1 mice = assay: Maximal electroshock-induced epilepsy model, behavioral pharmacodynamics; type: in vivo; settings: 5 mg/kg orally, one hour before electrical stimulation
Source text: This study used behavioral tests in male CD-1 mice to investigate the effects of test compounds on acute epileptic seizures behavior induced by maximal electroshock.
Male CD-1 mice (25 to 35g) were used as the experimental animals and fed with standard feed (Beijing Vital River Laboratory Animal Technology Co., Ltd.).
After arriving at the animal facility, the experimental animals needed to acclimatize for at least one week. The mice were observed daily for vital signs, and randomly divided into groups according to their body weights one day before the drug administration. One hour before the electrical stimulation, different dosages of the test compound were orally administered to each group. On the day of the assay, the male CD-1 mice in each group were anesthetized locally at the cornea with 2% lidocaine. Then, silver bipolar electrodes were used to electrically stimulate the cornea of the mice with 18 mA, 60 Hz, a pulse width of 0.6 ms, and a stimulation time of 1 s to induce seizures. Subsequently, the latency of seizures and the duration of limb rigidity in mice after the electrical stimulation were observed, and the protection rate from seizures for each group was statistically analyzed.

hKCNQ2/3 = target: T1, hKCNQ2/3 (Homo sapiens, UniProt O43525+O43526); assay: hKCNQ2/3 thallium flux assay (FLIPR); type: cell-based; settings: agonistic effect, CHO cell line stably expressing hKCNQ2/3
T1 construct: expressed in transfected cells; host or cells: CHO
Source text: The present disclosure also provides the following assay methods: • Assay method 1: hKCNQ2/3 thallium flux assay • Purpose of the assay: To determine the in vitro concentration-response relationship of the compounds in a CHO cell line stably expressing hKCNQ2/3 using FLIPR thallium flux assay.
CHO cells stably transfected with hKCNQ2/3.
The cell line was passaged three times a week at a split ratio of 1:2 to 1:3. When the cells grew to a confluence degree of greater than 80% in a T-75 cell flask, they were digested with 0.25% trypsin-EDTA solution for about 1 minute, and then the cells were transferred from the cell flask for passage. According to the split ratio, the cells were transferred to another T-75 cell flask containing complete cell growth culture medium. Note: In order to maintain the logarithmic growth of cells, the cell growth should be maintained in a subconfluent monolayer state. The cells were passaged every 2 to 3 days according to the cell doubling time.
• (1) Day 1, cell preparation: The cells were digested according to the above method, and the cell density and viability were determined using Cell Countess. The volume of the single-cell suspension was adjusted with complete cell growth culture medium. Then, the hKCNQ2/3_CHO cells were seeded at a density of approximately 20,000 cells/well (30 µL/well) into a PDL-precoated 384-well plate. Then, the plate was incubated at 37 °C with 5% CO2 humidified air in an incubator overnight. • (2) Day 2, compound preparation: A test compound was diluted to a storage concentration with dimethyl sulfoxide (DMSO), and stored in a freezer at -20 °C. A compound addition program was set up on the ECHO liquid workstation, and the compound was added to the plate using the ECHO liquid workstation. A positive control was prepared using Retigabine (RTG) with a maximum concentration of 100 µM, which was subjected to a 3-fold dilution, resulting in a total of 9 doses constituting the plate map required for plating. Prepare the plate using a stimulation buffer containing 5 mM K^+ and 1 mM Tl^+. Note: 1) K2SO4 and Tl2SO4 were prepared in a 1× chloride-free buffer. When different voltage-gated potassium channels were involved, the concentrations of Tl^+ and K^+ were needed to be adjusted. The concentration of Tl^+ was approximately 0.5 mM to 5 mM, and the concentration of K^+ was approximately 5 mM to 30 mM. 2) Each 1 mM solution of K2SO4 and Tl2SO4 contained 2 mM K^+ and Tl^+. The final concentration should be calculated based on the ion concentrations. 3) TlCl was easily precipitated and a chloride-free buffer was required. • (3) Day 2, assay testing: When the cells reached the confluence degree, the cell analysis plate was taken out from the incubator. The assay buffer was prepared and the Tl^+ dye (Molecular Devices # R8222) was diluted. The culture medium was discarded using the liquid workstation Bravo and 25 µL of Tl^+ dye was added to each well. The plate was incubated for 1 hour, and then the cell analysis plate, composite plate, and FLIPR tip were placed in FLIPR^TETRA (Molecular Devices, USA) for FLIPR assay. The tip was set up, and then the baseline was read for 60 seconds. Then, 12.5 µL from the composite plate (3×) was added to the cell analysis plate, and the data were recorded for at least 5 minutes at the same time. • (4) Data processing: The maximum signal was generated with FLIPR software. Excel (2013) and Prism 6.01 were used for data analysis. The data quality control was performed with S/B > 2.00 and Z-factor > 0.50. IC50 or EC50 was defined as the midline between the lowest and the highest plateaus, and it was calculated using a four-parameter logistic model with Prism 6.01.
Purpose of the assay: To determine the in vitro concentration-response relationship of the compounds in a CHO cell line stably expressing hKCNQ2/3 using FLIPR thallium flux assay. […]

[1] = Plasma protein binding rate, equilibrium dialysis (mouse plasma); type: in vitro ADME, CD-1 mice; settings: m (CD-1 mouse plasma), dialysis 4 hours at 37 °C, read-out: Unbound PPB%
Procedure: (§1) The protein binding rates of the compounds in the plasma of CD-1 mice, Sprague-Dawley rats, beagle dogs, cynomolgus monkeys, and human were determined using equilibrium dialysis method.
(§2) Commercially available plasma, dual-layer dialysis membrane, and equilibrium dialysis device.
(§3) The dual-layer dialysis membrane was soaked in ultrapure water for about 1 hour, removed and then divided into two parts. It was then soaked in an ethanol:water (20:80, v:v) solution for 20 minutes or placed at 2 to 8 °C, and it was valid for 1 month. Before starting the assay, the dialysis membrane was rinsed twice with ultrapure water and then soaked in ultrapure water for another 20 minutes for later use.
(§4) On the day of assay, the frozen plasma of CD-1 mice, Sprague-Dawley rats, beagle dogs, cynomolgus monkeys, and human was thawed in running cold tap water. After the plasma was completely thawed, the plasma was centrifuged at 3220×g for 5 minutes, and the suspended substances and precipitates in it were removed. The pH of the plasma was determined. The plasma with a pH in the range of 7.4 ± 0.1 was directly used, or the plasma with a pH in the range of 7.4 ± 0.1 after an adjustment with 1% phosphoric acid or 1M sodium hydroxide was used.
(§5) Preparation process of plasma samples: 597 µL of blank plasma from each of the above five species was taken, respectively. 3 µL of a compound or warfarin working solution was added, and the mixture was mixed thoroughly to give a plasma sample with a compound concentration of 2 µM and a warfarin concentration of 2 µM (n=1). The concentration of the organic phase DMSO was 0.5%. The sample was thoroughly mixed before proceeding to the next step.
(§6) Preparation process of T0 samples: 50 µL of a plasma sample containing the compound and warfarin was transferred to a sample receiving plate (n=3), and 50 µL of blank PBS was immediately added. Then, 500 µL of stop solution was added to the T0 sample of the compound and warfarin, and the mixture was stored at 2 to 8 °C, waiting to be processed later together with other dialysis-processed samples.
(§7) Dialysis process of plasma samples: 100 µL of a compound (2 µM) and warfarin (2 µM) plasma sample was added to the donor of each dialysis well (n=3), and 100 µL of blank PBS was added to the corresponding receiver of the dialysis well. The dialysis plate was placed in a 5% CO2 incubator, and incubated at 37 °C with shaking at approximately 100 rpm for 4 hours.
(§8) After the dialysis was completed, 50 µL of dialysis-processed PBS sample and dialysis-processed plasma sample (n=3) were transferred to a new 96-well plate (sample receiving plate). The corresponding volume of the corresponding blank plasma or PBS was added to the sample to make the final volume of each sample well 100 µL, with a plasma to PBS volume ratio of 1:1. All the samples were analyzed by LC-MS/MS after protein precipitation.
(§9) The formulas for calculating the unbound fraction (%Unbound), bound fraction (%Bound) and recovery fraction (%Recovery) of a compound are as follows: %Unbound = 100 ×F / T %Bound = 100 - %Unbound %Recovery = 100 ×(F + T)/ T0 wherein F is the concentration of the compound at the receiver of dialysis; T is the concentration of the compound at the supply end of dialysis; and T0 is the concentration of the compound in the plasma at time zero.

[2] = Plasma protein binding rate, equilibrium dialysis (monkey plasma); type: in vitro ADME, cynomolgus monkeys; settings: c (cynomolgus monkey plasma), dialysis 4 hours at 37 °C, read-out: Unbound PPB%
Procedure: as §1, §2, §3, §4, §5, §6, §7, §8, §9

[3] = Plasma protein binding rate, equilibrium dialysis (rat plasma); type: in vitro ADME, Sprague-Dawley rats; settings: r (Sprague-Dawley rat plasma), dialysis 4 hours at 37 °C, read-out: Unbound PPB%
Procedure: as §1, §2, §3, §4, §5, §6, §7, §8, §9

[4] = Plasma protein binding rate, equilibrium dialysis (human plasma); type: in vitro ADME; settings: dialysis 4 hours at 37 °C, read-out: Unbound PPB%
Procedure: as §1, §2, §3, §4, §5, §6, §7, §8, §9

[5] = Plasma protein binding rate, equilibrium dialysis (dog plasma); type: in vitro ADME, beagle dogs; settings: d (beagle dog plasma), dialysis 4 hours at 37 °C, read-out: Unbound PPB%
Procedure: as §1, §2, §3, §4, §5, §6, §7, §8, §9

T1 sequence (O43525 whole entry): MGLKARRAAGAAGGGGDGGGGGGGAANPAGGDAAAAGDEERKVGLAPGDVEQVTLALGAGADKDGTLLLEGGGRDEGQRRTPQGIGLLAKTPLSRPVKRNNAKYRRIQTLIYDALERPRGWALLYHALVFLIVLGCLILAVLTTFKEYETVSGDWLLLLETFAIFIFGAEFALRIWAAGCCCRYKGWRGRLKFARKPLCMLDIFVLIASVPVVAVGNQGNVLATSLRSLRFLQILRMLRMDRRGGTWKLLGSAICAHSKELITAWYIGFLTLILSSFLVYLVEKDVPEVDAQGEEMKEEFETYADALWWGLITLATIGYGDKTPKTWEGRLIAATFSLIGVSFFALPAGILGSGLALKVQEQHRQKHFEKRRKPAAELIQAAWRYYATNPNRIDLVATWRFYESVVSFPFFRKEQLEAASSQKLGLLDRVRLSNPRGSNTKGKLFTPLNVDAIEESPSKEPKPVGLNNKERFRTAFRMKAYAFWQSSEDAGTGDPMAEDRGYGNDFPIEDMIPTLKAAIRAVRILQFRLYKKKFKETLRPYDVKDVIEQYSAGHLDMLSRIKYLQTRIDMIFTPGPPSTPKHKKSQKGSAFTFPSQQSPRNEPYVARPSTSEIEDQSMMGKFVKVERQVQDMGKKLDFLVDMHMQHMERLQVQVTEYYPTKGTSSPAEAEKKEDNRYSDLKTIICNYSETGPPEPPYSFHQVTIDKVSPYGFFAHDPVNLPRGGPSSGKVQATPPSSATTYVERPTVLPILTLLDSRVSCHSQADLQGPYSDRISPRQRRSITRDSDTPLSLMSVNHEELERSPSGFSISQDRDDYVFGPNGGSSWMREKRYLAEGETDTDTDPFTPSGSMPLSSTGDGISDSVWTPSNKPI
T1 sequence (O43526 whole entry): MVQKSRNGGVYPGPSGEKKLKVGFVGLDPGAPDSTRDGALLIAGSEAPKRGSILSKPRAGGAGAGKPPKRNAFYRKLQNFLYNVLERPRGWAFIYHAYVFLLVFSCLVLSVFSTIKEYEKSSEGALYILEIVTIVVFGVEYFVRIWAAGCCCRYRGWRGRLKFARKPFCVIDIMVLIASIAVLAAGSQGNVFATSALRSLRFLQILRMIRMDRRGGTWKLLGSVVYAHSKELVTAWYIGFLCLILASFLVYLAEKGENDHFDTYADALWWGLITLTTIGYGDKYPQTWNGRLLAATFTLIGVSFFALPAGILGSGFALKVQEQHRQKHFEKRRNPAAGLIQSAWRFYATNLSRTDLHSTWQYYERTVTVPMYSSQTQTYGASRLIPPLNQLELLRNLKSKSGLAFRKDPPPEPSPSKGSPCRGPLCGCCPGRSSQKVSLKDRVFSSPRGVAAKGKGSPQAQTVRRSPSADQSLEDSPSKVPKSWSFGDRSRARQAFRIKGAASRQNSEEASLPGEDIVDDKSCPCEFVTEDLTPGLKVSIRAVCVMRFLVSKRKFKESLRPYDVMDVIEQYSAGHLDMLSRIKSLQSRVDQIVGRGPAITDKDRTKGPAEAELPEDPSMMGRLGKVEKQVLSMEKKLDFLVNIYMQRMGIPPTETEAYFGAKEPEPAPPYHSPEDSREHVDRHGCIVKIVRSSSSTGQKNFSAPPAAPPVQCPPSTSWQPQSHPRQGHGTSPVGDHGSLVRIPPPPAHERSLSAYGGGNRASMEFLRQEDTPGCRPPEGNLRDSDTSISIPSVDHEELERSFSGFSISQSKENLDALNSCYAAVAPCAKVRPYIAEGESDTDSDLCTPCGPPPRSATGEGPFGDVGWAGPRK

SMILES	Protection rate from seizures (male CD-1 mice) [%]	EC50 (hKCNQ2/3) [nM]	fraction unbound at 4 h, 2 µM [1]	fraction unbound at 4 h, 2 µM [2]	fraction unbound at 4 h, 2 µM [3]	fraction unbound at 4 h, 2 µM [4]	fraction unbound at 4 h, 2 µM [5]
CC(C)(C)CC(=O)Nc1nc2c(F)c3c(cc2n1C1CCC1)CCC3 [Compound 8]	50	420					
CC(C)(C)CC(=O)Nc1nc2cc3c(cc2n1C1CCC1)CCC3 [Compound 7]	66.67	420	0.003	0.012	0.003	0.004	0.006
CC(C)(C)CC(=O)Nc1nc2cc3c(cc2n1C1(C)CCC1)CCC3 [Compound 9]	50	160	0.002	0.004	0.002	0.003	0.004
CC(C)(C)CC(=O)Nc1nc2cc3c(cc2n1C(C)(C)C)CCC3 [Compound 10]	33.33	120					
